Source: ChEMBL document CHEMBL1132080, “Investigation of the S3 site of thrombin: design, synthesis and biological activity of 4-substituted 3-amino-2-pyridones incorporating P1-argininals” (Bioorg Med Chem Lett, 1999)

Experiments:
Coagulation factor X = Coagulation factor X (Homo sapiens, UniProt P00742); assay: Concentration required for the in vitro inhibitory activity against human enzyme, Factor Xa cleavage of the chromogenic substrate
Plasminogen = Plasminogen (Homo sapiens, UniProt P00747); assay: Concentration required for the in vitro inhibitory activity against human enzyme, Plasmin cleavage of the chromogenic substrate
Plasminogen, sequence (P00747 97-580 limits assumed): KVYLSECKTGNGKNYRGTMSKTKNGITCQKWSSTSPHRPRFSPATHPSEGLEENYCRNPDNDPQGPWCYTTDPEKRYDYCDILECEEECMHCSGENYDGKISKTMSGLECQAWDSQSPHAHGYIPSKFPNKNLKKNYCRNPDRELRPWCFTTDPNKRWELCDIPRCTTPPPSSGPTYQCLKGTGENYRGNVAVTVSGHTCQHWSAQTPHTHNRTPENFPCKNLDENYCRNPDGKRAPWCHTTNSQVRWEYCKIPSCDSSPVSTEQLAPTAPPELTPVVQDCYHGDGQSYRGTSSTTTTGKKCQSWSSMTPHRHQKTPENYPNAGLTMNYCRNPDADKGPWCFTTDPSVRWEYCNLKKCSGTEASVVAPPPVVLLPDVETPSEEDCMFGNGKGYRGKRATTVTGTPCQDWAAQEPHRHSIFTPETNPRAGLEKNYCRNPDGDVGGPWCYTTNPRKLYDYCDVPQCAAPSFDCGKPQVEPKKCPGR
Plasminogen, sequence (P00747 581-810 limits assumed): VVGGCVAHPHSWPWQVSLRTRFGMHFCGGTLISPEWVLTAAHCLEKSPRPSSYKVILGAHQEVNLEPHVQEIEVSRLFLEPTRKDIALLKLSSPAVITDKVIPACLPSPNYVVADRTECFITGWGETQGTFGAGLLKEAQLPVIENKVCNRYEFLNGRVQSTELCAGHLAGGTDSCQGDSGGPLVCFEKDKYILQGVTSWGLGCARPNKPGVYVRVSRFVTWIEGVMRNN

Prothrombin = Prothrombin (Homo sapiens, UniProt P00734); assay: Concentration required for the in vitro inhibitory activity against human enzyme, thrombin cleavage of the chromogenic substrate
Serine protease 1 = Serine protease 1 (Homo sapiens, UniProt P07477); assay: Concentration required for the in vitro inhibitory activity against human enzyme, trypsin cleavage of the chromogenic substrate
Serine protease 1, sequence (P07477 whole entry): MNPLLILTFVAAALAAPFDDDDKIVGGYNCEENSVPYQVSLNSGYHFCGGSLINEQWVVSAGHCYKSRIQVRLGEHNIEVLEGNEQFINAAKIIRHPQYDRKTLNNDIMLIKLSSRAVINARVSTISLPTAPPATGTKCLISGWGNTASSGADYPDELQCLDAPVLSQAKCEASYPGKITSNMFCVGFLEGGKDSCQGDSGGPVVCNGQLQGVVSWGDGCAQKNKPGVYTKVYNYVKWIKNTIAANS

Coagulation factor X, sequence (P00742 41-179 limits assumed): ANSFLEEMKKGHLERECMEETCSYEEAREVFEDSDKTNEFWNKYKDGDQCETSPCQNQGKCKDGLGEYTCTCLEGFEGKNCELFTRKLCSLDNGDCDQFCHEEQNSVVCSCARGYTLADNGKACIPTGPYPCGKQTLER
Coagulation factor X, sequence (P00742 235-488 limits assumed): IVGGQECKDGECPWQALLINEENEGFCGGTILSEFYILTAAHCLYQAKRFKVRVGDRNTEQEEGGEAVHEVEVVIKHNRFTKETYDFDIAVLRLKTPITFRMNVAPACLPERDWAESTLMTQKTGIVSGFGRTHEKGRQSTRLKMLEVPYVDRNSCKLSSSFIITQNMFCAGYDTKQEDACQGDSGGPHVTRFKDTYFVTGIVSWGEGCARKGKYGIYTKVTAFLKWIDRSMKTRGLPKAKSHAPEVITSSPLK

| SMILES | IC50 (Coagulation factor X) [nM] | IC50 (Plasminogen) [nM] | IC50 (Prothrombin) [nM] | IC50 (Serine protease 1) [nM] |
| --- | --- | --- | --- | --- |
| CS(=O)(=O)Nc1c(CCc2ccccc2)ccn(CC(=O)N[C@H]2CCCN(C(=N)N)C2O)c1=O (some centres not stated) | > 2500 | > 2500 | 7.95 | 135 |
| CS(=O)(=O)Nc1c(CCC2CCCCC2)ccn(CC(=O)N[C@H]2CCCN(C(=N)N)C2O)c1=O (some centres not stated) | 2500 | > 2500 | 256 | 257 |
| CC(=O)Nc1c(CCc2ccccc2)ccn(CC(=O)N[C@H]2CCCN(C(=N)N)C2O)c1=O (some centres not stated) | > 2500 | > 2500 | 472 | 1220 |
| N=C(N)N1CCC[C@H](NC(=O)Cn2ccc(CCc3ccccc3)c(NS(=O)(=O)CC(F)(F)F)c2=O)C1O (some centres not stated) | > 2500 | > 2500 | 194 | 1220 |
| N=C(N)N1CCC[C@H](NC(=O)CN2CCCC(NS(=O)(=O)Cc3ccccc3)C2=O)C1O (some centres not stated) | 2500 | > 2500 | 6.2 | 791 |
| CS(=O)(=O)Nc1c(CCCc2ccccc2)ccn(CC(=O)N[C@H]2CCCN(C(=N)N)C2O)c1=O (some centres not stated) | > 2500 | > 2500 | 203 | 479 |
| N=C(N)N1CCC[C@H](NC(=O)Cn2ccc(CCc3ccccc3)c(NS(=O)(=O)c3ccccc3)c2=O)C1O (some centres not stated) | 2360 | > 2500 | 89.1 | 188 |
| CNS(=O)(=O)Nc1c(CCc2ccccc2)ccn(CC(=O)N[C@H]2CCCN(C(=N)N)C2O)c1=O (some centres not stated) | 2500 | 250 | 50.5 | 103 |
